In patent US4311699A, “Aminoacid derivatives of cephalosporin compounds” (priority 1980, dated 1982):
Converted amounts (≈) assume the structure as drawn.

Tests used:
Assay in all cases: in vitro antibacterial activity, minimal inhibitory concentration
Format in all cases: cell-based
[1] = test system: E. coli Brig; details: for MIC: Escherichia coli
Excerpt: (§1) The compounds of the invention are new chemical compounds that are used as pharmacological agents and especially as broad spectrum antibacterial agents. They are active in vitro against strains of both gram-positive and gram-negative bacteria.
(§2) Minimal Inhibitory Concentration (μg/ml)

[2] = test system: E. coli Vogel; details: for MIC: Escherichia coli
Excerpt: as §1, §2

[3] = test system: Entero. cloacae; details: for MIC: Enterobacter cloacae
Excerpt: as §1, §2

[4] = test system: Klebs. pneu.
Excerpt: as §1, §2

[5] = test system: Prot. vulg.
Excerpt: as §1, §2

[6] = test system: Pseudomonas #28; details: Pseudomonas #28, in vitro; for MIC: read-out: Minimal Inhibitory Concentration
Excerpt: as §1, §2

[7] = test system: Pseudomonas BRK 12-4-4; details: Pseudomonas BRK 12-4-4, in vitro; for MIC: BRK1244
Excerpt: as §1, §2

[8] = test system: Pseudomonas UI 18; details: Pseudomonas UI 18, in vitro; for MIC: UI18
Excerpt: as §1, §2

[9] = test system: Serr. marces.
Excerpt: as §1, §2

[10] = test system: Staph. aureus S18733; details: for MIC: Staphylococcus aureus
Excerpt: as §1, §2

[11] = test system: Staph. aureus UC-76; details: Staph. aureus UC-76, in vitro; for MIC: Staphylococcus aureus, UC76
Excerpt: as §1, §2

[12] = test system: Strep. fec.
Excerpt: as §1, §2

SMILES	MIC [1]	MIC [2]	MIC [3]	MIC [4]	MIC [5]	MIC [6]	MIC [7]	MIC [8]	MIC [9]	MIC [10]	MIC [11]	MIC [12]	also measured
CC(=O)N[C@H](C)C(=O)Nc1ccc(-c2ncc(C(=O)N[C@@H](C(=O)NC3C(=O)N4C(C(=O)O)=C(CSc5nnnn5C)CSC34)c3ccccc3)c(O)n2)cc1 (stereo partly drawn) [Example 25, N-[2-[4-(N-Acetyl-D-alanylamino)phenyl]-4-hydroxy-5-pyrimidinylcarbonyl]-7-[D-2-amino-2-phenylacetamido]-3-[[(1-methyl-1H-tetrazol-5-yl)thio]methyl]-3-cephem-4-carboxylic acid]	6.3 µg/mL (≈ 8 µM)	3.1 µg/mL (≈ 3.93 µM)	6.3 µg/mL (≈ 8 µM)	3.1 µg/mL (≈ 3.93 µM)	12.5 µg/mL (≈ 15.9 µM)	3.1 µg/mL (≈ 3.93 µM)	6.3 µg/mL (≈ 8 µM)	6.3 µg/mL (≈ 8 µM)	50 µg/mL (≈ 63.5 µM)	6.3 µg/mL (≈ 8 µM)	1.6 µg/mL (≈ 2.03 µM)	> 50 µg/mL	–
CC(=O)N[C@@H](C)C(=O)Nc1ccc(-c2ncc(C(=O)N[C@@H](C(=O)NC3C(=O)N4C(C(=O)O)=C(CSc5nnnn5C)CSC34)c3ccccc3)c(O)n2)cc1 (stereo partly drawn) [Example 26, N-[2-[4-(N-Acetyl-L-alanylamino)phenyl]-4-hydroxy-5-pyrimidinylcarbonyl]-7-[D-2-amino-2-phenylacetamido]-3-[[(1-methyl-1H-tetrazol-5-yl)thio]methyl]-3-cephem-4-carboxylic acid]	12.5 µg/mL (≈ 15.9 µM)	3.1 µg/mL (≈ 3.93 µM)	12.5 µg/mL (≈ 15.9 µM)	6.3 µg/mL (≈ 8 µM)	12.5 µg/mL (≈ 15.9 µM)	6.3 µg/mL (≈ 8 µM)	12.5 µg/mL (≈ 15.9 µM)	12.5 µg/mL (≈ 15.9 µM)	50 µg/mL (≈ 63.5 µM)	12.5 µg/mL (≈ 15.9 µM)	6.3 µg/mL (≈ 8 µM)	50 µg/mL (≈ 63.5 µM)	–
CC(=O)NCCCC(=O)Nc1ccc(-c2ncc(C(=O)N[C@@H](C(=O)NC3C(=O)N4C(C(=O)O)=C(CSc5nnnn5C)CSC34)c3ccccc3)c(O)n2)cc1 (stereo partly drawn) [Example 27, N-[2-[4-(N-Acetyl-aminobutyrylamino)phenyl]-4-hydroxy-5-pyrimidinylcarbonyl]-7-[D-2-amino-2-phenylacetamido]-3-[[(1-methyl-1H-tetrazol-5-yl)thio]methyl]-3-cephem-4-carboxylic acid]	12.5 µg/mL (≈ 15.6 µM)	1.6 µg/mL (≈ 2 µM)	6.3 µg/mL (≈ 7.86 µM)	1.6 µg/mL (≈ 2 µM)	12.5 µg/mL (≈ 15.6 µM)	3.1 µg/mL (≈ 3.87 µM)	12.5 µg/mL (≈ 15.6 µM)	6.3 µg/mL (≈ 7.86 µM)	25 µg/mL (≈ 31.2 µM)	6.3 µg/mL (≈ 7.86 µM)	1.6 µg/mL (≈ 2 µM)	25 µg/mL (≈ 31.2 µM)	–
CC(=O)NC(C)(C)C(=O)Nc1ccc(-c2ncc(C(=O)N[C@@H](C(=O)NC3C(=O)N4C(C(=O)O)=C(CSc5nnnn5C)CSC34)c3ccccc3)c(O)n2)cc1 (stereo partly drawn) [Example 28]	12.5 µg/mL (≈ 15.6 µM)	3.1 µg/mL (≈ 3.87 µM)	6.3 µg/mL (≈ 7.86 µM)	6.3 µg/mL (≈ 7.86 µM)	25 µg/mL (≈ 31.2 µM)	3.1 µg/mL (≈ 3.87 µM)	6.3 µg/mL (≈ 7.86 µM)	6.3 µg/mL (≈ 7.86 µM)	50 µg/mL (≈ 62.4 µM)	6.3 µg/mL (≈ 7.86 µM)	3.1 µg/mL (≈ 3.87 µM)	50 µg/mL (≈ 62.4 µM)	–
CC(=O)N[C@@H](C(=O)Nc1ccc(-c2ncc(C(=O)N[C@@H](C(=O)NC3C(=O)N4C(C(=O)O)=C(CSc5nnnn5C)CSC34)c3ccccc3)c(O)n2)cc1)C(C)C (stereo partly drawn) [Example 29]	12.5 µg/mL (≈ 15.3 µM)	1.6 µg/mL (≈ 1.96 µM)	12.5 µg/mL (≈ 15.3 µM)	3.1 µg/mL (≈ 3.8 µM)	6.3 µg/mL (≈ 7.72 µM)	6.3 µg/mL (≈ 7.72 µM)	12.5 µg/mL (≈ 15.3 µM)	6.3 µg/mL (≈ 7.72 µM)	50 µg/mL (≈ 61.3 µM)	3.1 µg/mL (≈ 3.8 µM)	1.6 µg/mL (≈ 1.96 µM)	25 µg/mL (≈ 30.6 µM)	–
CC(=O)N1C[C@H](O)C[C@H]1C(=O)Nc1ccc(-c2ncc(C(=O)N[C@@H](C(=O)NC3C(=O)N4C(C(=O)O)=C(CSc5nnnn5C)CS[C@H]34)c3ccccc3)c(O)n2)cc1 (stereo partly drawn) [Example 30, N-[2[4-(N-Acetyl-L-hydroxyprolylamino)phenyl]-4-hydroxy-5-pyrimidinylcarbonyl]-7-[D-2-amino2-phenylacetamido]-3-[[(1-methyl-1H-tetrazol-5-yl)thio]methyl]-3-cephem-4-carboxylic acid]	–	–	–	–	–	–	–	–	–	–	–	–	Minimal Inhibitory Concentration [1]: 12.5 µg/mL; Minimal Inhibitory Concentration [2]: 3.1 µg/mL; Minimal Inhibitory Concentration [3]: 6.3 µg/mL; Minimal Inhibitory Concentration [4]: 3.1 µg/mL; Minimal Inhibitory Concentration [5]: 25 µg/mL; Minimal Inhibitory Concentration [6]: 6.3 µg/mL; Minimal Inhibitory Concentration [7]: 12.5 µg/mL; Minimal Inhibitory Concentration [8]: 6.3 µg/mL; Minimal Inhibitory Concentration [9]: > 50 µg/mL; Minimal Inhibitory Concentration [10]: 12.5 µg/mL; Minimal Inhibitory Concentration [11]: 3.1 µg/mL; Minimal Inhibitory Concentration [12]: > 50 µg/mL
CC(=O)N[C@H](C)C(=O)Nc1ccc(-c2ncc(C(=O)N[C@@H](C(=O)NC3C(=O)N4C(C(=O)O)=C(CSc5nnnn5C)CSC34)c3ccc(O)cc3)c(O)n2)cc1 (stereo partly drawn) [Example 31, N-[2[4-(N-Acetyl-D-alanylamino)phenyl]-4-hydroxy-5-pyrimidinyl-carbonyl]-7-[D-2-amino-2-(4-hydroxyphenyl)acetamido]-3-[[(1-methyl-1H-tetrazol-5-yl)thiol]methyl]-3-cephem-4-carboxylic acid]	6.3 µg/mL (≈ 7.84 µM)	1.6 µg/mL (≈ 1.99 µM)	6.3 µg/mL (≈ 7.84 µM)	1.6 µg/mL (≈ 1.99 µM)	6.3 µg/mL (≈ 7.84 µM)	3.1 µg/mL (≈ 3.86 µM)	3.1 µg/mL (≈ 3.86 µM)	3.1 µg/mL (≈ 3.86 µM)	50 µg/mL (≈ 62.2 µM)	6.3 µg/mL (≈ 7.84 µM)	3.1 µg/mL (≈ 3.86 µM)	25 µg/mL (≈ 31.1 µM)	–
CC(=O)N[C@@H](C)C(=O)Nc1ccc(-c2ncc(C(=O)N[C@@H](C(=O)NC3C(=O)N4C(C(=O)O)=C(CSc5nnnn5CC(=O)O)CSC34)c3ccccc3)c(O)n2)cc1 (stereo partly drawn) [Example 33]	12.5 µg/mL (≈ 15 µM)	1.6 µg/mL (≈ 1.92 µM)	6.3 µg/mL (≈ 7.57 µM)	6.3 µg/mL (≈ 7.57 µM)	3.1 µg/mL (≈ 3.73 µM)	6.3 µg/mL (≈ 7.57 µM)	12.5 µg/mL (≈ 15 µM)	12.5 µg/mL (≈ 15 µM)	> 50 µg/mL	25 µg/mL (≈ 30.1 µM)	6.3 µg/mL (≈ 7.57 µM)	> 50 µg/mL	–
CC(=O)N[C@H](C)C(=O)Nc1ccc(-c2ncc(C(=O)N[C@@H](C(=O)NC3C(=O)N4C(C(=O)O)=C(CSc5nnnn5CC(=O)O)CSC34)c3ccccc3)c(O)n2)cc1 (stereo partly drawn) [Example 34, N-[2-[4-(N-Acetyl-D-alanylamino)phenyl]-4-hydroxy-5-pyrimidinylcarbonyl]-7-[D-2-amino-2-phenylacetamido]-3-[[(1-carboxymethyl-1H-tetrazol-5-yl)thio]methyl]-3-cephem-4-carboxylic acid]	12.5 µg/mL (≈ 15 µM)	3.1 µg/mL (≈ 3.73 µM)	12.5 µg/mL (≈ 15 µM)	6.3 µg/mL (≈ 7.57 µM)	1.6 µg/mL (≈ 1.92 µM)	12.5 µg/mL (≈ 15 µM)	12.5 µg/mL (≈ 15 µM)	12.5 µg/mL (≈ 15 µM)	> 50 µg/mL	25 µg/mL (≈ 30.1 µM)	12.5 µg/mL (≈ 15 µM)	> 50 µg/mL	–
CC(=O)N[C@H](C)C(=O)Nc1ccc(-c2ncc(C(=O)N[C@@H](C(=O)NC3C(=O)N4C(C(=O)O)=C(CSc5nnnn5CC(=O)O)CSC34)c3ccc(O)cc3)c(O)n2)cc1 (stereo partly drawn) [Example 37, N-[2-[4-(N-Acetyl-D-alanylamino)phenyl]-4-hydroxy-5-pyrimidinylcarbonyl)-7-[D-2amino-2-(4-hydroxyphenyl)acetamido]-3-[[(1-carboxymethyl-1H-tetrazol-5-yl)thio]methyl]-3-cephem-4-carboxylic acid]	12.5 µg/mL (≈ 14.7 µM)	3.1 µg/mL (≈ 3.66 µM)	12.5 µg/mL (≈ 14.7 µM)	12.5 µg/mL (≈ 14.7 µM)	1.6 µg/mL (≈ 1.89 µM)	12.5 µg/mL (≈ 14.7 µM)	12.5 µg/mL (≈ 14.7 µM)	6.3 µg/mL (≈ 7.43 µM)	> 50 µg/mL	25 µg/mL (≈ 29.5 µM)	25 µg/mL (≈ 29.5 µM)	> 50 µg/mL	–
C[C@@H](N)C(=O)Nc1ccc(-c2ncc(C(=O)N[C@@H](C(=O)NC3C(=O)N4C(C(=O)O)=C(CSc5nnnn5CC(=O)O)CSC34)c3ccccc3)c(O)n2)cc1 (stereo partly drawn) [Example 38, N-[2-[4-(D-Alanylamino)phenyl]-4-hydroxy-5-pyrimidinylcarbonyl]-7-[D-2-amino-2-phenylacetamido]-3-[[(1-carboxymethyl-1H-tetrazol-5-yl)thio]-methyl]-3-cephem-4-carboxylic acid]	6.3 µg/mL (≈ 7.98 µM)	0.8 µg/mL (≈ 1.01 µM)	6.3 µg/mL (≈ 7.98 µM)	6.3 µg/mL (≈ 7.98 µM)	0.8 µg/mL (≈ 1.01 µM)	3.1 µg/mL (≈ 3.92 µM)	3.1 µg/mL (≈ 3.92 µM)	3.1 µg/mL (≈ 3.92 µM)	25 µg/mL (≈ 31.7 µM)	12.5 µg/mL (≈ 15.8 µM)	6.3 µg/mL (≈ 7.98 µM)	> 50 µg/mL	–
CC(=O)NCC(=O)Nc1ccc(-c2ncc(C(=O)N[C@@H](C(=O)NC3C(=O)N4C(C(=O)O)=C(CSc5nnc(C)s5)CSC34)c3ccccc3)c(O)n2)cc1 (stereo partly drawn) [Example 39, N-[2-[4-(N-Acetylglycylamino)phenyl]-4-hydroxy-5-pyrimidinylcarbonyl]-7-[D-2-amino-2-phenylacetamido]-3-[[(5-methyl-1,3,4-thiadiazol-2-yl)thio]methyl]-3-cephem-4-carboxylic acid]	12.5 µg/mL (≈ 15.8 µM)	1.6 µg/mL (≈ 2.03 µM)	6.3 µg/mL (≈ 7.98 µM)	1.6 µg/mL (≈ 2.03 µM)	6.3 µg/mL (≈ 7.98 µM)	12.5 µg/mL (≈ 15.8 µM)	25 µg/mL (≈ 31.7 µM)	25 µg/mL (≈ 31.7 µM)	50 µg/mL (≈ 63.3 µM)	3.1 µg/mL (≈ 3.92 µM)	0.8 µg/mL (≈ 1.01 µM)	50 µg/mL (≈ 63.3 µM)	–
NC(=O)CC[C@H](N)C(=O)Nc1ccc(-c2ncc(C(=O)N[C@@H](C(=O)NC3C(=O)N4C(C(=O)O)=C(CSc5nnnn5CC(=O)O)CSC34)c3ccccc3)c(O)n2)cc1 (stereo partly drawn) [Example 41, N-[2-[4-(L-Glutaminylamino)phenyl]-4-hydroxy-5-pyrimidinylcarbonyl]-7-[D-2-amino-2-phenylacetamido]-3-[[(1-carboxymethyl-1H-tetrazol-5-yl)thio]methyl]-3-cephem-4-carboxylic acid]	12.5 µg/mL (≈ 14.8 µM)	3.1 µg/mL (≈ 3.66 µM)	12.5 µg/mL (≈ 14.8 µM)	3.1 µg/mL (≈ 3.66 µM)	1.6 µg/mL (≈ 1.89 µM)	12.5 µg/mL (≈ 14.8 µM)	12.5 µg/mL (≈ 14.8 µM)	12.5 µg/mL (≈ 14.8 µM)	50 µg/mL (≈ 59 µM)	25 µg/mL (≈ 29.5 µM)	12.5 µg/mL (≈ 14.8 µM)	> 50 µg/mL	–
